According to patent US10336762B2 (priority 2017, dated 2019):
pEC50, pIC50: −log10 of the molar value. Read-outs that look alike come from different tables or passages of the source.

Legend:
TNFα = experiment: cells; assay type: cell-based, human; settings: Homo sapiens, Monocyte, LPS-stimulated human monocytes, read-out: EC50 TNF
IRAK4 enzyme = IRAK4 enzyme (Homo sapiens (Human), UniProt Q9NWZ3); experiment: biochemical; assay type: biochemical; settings: IRAK4 enzyme, 500 μM ATP
Sequence of IRAK4 enzyme (Q9NWZ3 whole entry): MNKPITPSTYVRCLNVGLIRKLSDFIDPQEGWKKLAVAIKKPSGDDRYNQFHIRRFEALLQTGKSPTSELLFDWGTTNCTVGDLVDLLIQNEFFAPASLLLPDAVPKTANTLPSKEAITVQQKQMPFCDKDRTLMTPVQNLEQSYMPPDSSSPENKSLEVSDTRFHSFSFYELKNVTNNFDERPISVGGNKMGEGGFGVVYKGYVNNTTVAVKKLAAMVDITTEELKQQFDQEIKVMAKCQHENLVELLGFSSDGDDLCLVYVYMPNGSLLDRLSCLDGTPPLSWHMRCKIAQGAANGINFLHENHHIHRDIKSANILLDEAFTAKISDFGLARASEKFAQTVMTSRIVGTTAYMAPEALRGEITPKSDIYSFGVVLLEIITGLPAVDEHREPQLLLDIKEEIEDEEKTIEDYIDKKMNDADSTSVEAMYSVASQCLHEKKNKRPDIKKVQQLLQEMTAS

SMILES	pEC50 (TNFα; TNFα by TR-FRET)	pIC50 (IRAK4 enzyme; TR-FRET)	pEC50 (TNFα; TNFα content)	pIC50 (IRAK4 enzyme; TR-FRET (HTRF))
CC(C)(O)[C@H](F)CNC(=O)c1cnc(-c2ccc3cc(C#N)cnn23)cc1NC[C@H]1CCN1CC(F)(F)F [Example 894, 6-(3-cyanopyrrolo[1,2-b]pyridazin-7-yl)-N-((R)-2-fluoro-3-hydroxy-3-methylbutyl)-4-((((R)-1-(2,2,2-trifluoroethyl)azetidin-2-yl)methyl)amino)nicotinamide]	6.61	8.15	–	–
COC12CCC(Nc3cc(-c4ccc5cc(C#N)cnn45)ncc3C(=O)NC[C@@H](F)C(C)(C)O)(CC1)CC2 [Example 414, 6-(3-cyanopyrrolo[1,2-b]pyridazin-7-yl)-N-((R)-2-fluoro-3-hydroxy-3-methylbutyl)-4-((4-methoxybicyclo[2.2.2]octan-1-yl)amino)nicotinamide]	–	–	6.75	7.92
CNC(=O)c1cnc(-c2ccc3cc(C#N)cnn23)cc1N[C@H]1C[C@H](C(=O)NC)C1 [Example 472, 6-(3-cyanopyrrolo[1,2-b]pyridazin-7-yl)-N-methyl-4-(((1r,3r)-3-(methylcarbamoyl)cyclobutyl)amino) nicotinamide]	–	–	5.27	7.37
CC(C)(O)[C@H](F)CNC(=O)c1cnc(-c2ccc3cc(C#N)cnn23)cc1NC1CNC(=O)C1 (stereo partly drawn) [Example 8, 6-(3-cyanopyrrolo[1,2-b]pyridazin-7-yl)-N-((R)-2-fluoro-3-hydroxy-3-methylbutyl)-4-((5-oxopyrrolidin-3-yl)amino)nicotinamide]	–	> 9.00	6.11	–
CC(C)(O)[C@H](F)CNC(=O)c1cnc(-c2ccc3cc(C#N)cnn23)cc1Nc1ccc2ncsc2c1 [Example 572, (R)-4-(benzo[d]thiazol-6-ylamino)-6-(3-cyano-pyrrolo[1,2-b]pyridazin-7-yl)-N-(2-fluoro-3-hydroxy-3-methylbutyl)nicotinamide]	–	–	7.18	> 9.00
N#Cc1cnn2c(-c3cc(NC4COC4)c(C(=O)NCC(=O)N4CC(F)(F)C4)cn3)ccc2c1 [Example 626, 6-(3-cyanopyrrolo[1,2-b]pyridazin-7-yl)-N-(2-(3,3-difluoroazetidin-1-yl)-2-oxoethyl)-4-(oxetan-3-ylamino)nicotinamide]	–	–	7.10	> 9.00
CO[C@@H]1CCC[C@H](Nc2cc(-c3ccc4cc(C#N)cnn34)ncc2C(=O)NC[C@@H](F)C(C)(C)O)C1 [Example 62, 6-(3-cyanopyrrolo[1,2-b]pyridazin-7-yl)-N-((R)-2-fluoro-3-hydroxy-3-methylbutyl)-4-(((1S,3R)-3-methoxycyclohexyl)amino) nicotinamide]	–	> 9.00	7.08	–
CC(C)(O)[C@H](F)CNC(=O)c1cnc(-c2ccc3cc(C#N)cnn23)cc1NC12CCC(C(N)=O)(CC1)CC2 [Example 398, (R)-4-((4-carbamoylbicyclo[2.2.2]octan-1-yl)amino)-6-(3-cyanopyrrolo[1,2-b]pyridazin-7-yl)-N-(2-fluoro-3-hydroxy-3-methyl-butyl)nicotinamide]	–	–	7.77	> 9.00
CC(C)(O)[C@H](F)CNC(=O)c1cnc(-c2ccc3cc(C#N)cnn23)cc1Nc1ccc2c(c1)CN(C1COC1)C2 [Example 864, (R)-6-(3-cyanopyrrolo[1,2-b]pyridazin-7-yl)-N-(2-fluoro-3-hydroxy-3-methylbutyl)-4-((2-(oxetan-3-yl)isoindolin-5-yl)amino) nicotinamide]	7.16	> 9.00	–	–
CC(C)(F)[C@H](F)CNC(=O)c1cnc(-c2ccc3cc(C#N)cnn23)cc1N[C@H]1CCC[C@@H](O)C1 [Example 530, 6-(3-cyanopyrrolo[1,2-b]pyridazin-7-yl)-N-((R)-2,3-difluoro-3-methylbutyl)-4-(((1S,3R)-3-hydroxy-cyclohexyl)amino)nicotinamide]	–	–	8.00	> 9.00
CN1CCN(C(=O)CCNC(=O)c2cnc(-c3ccc4cc(C#N)cnn34)cc2NC23CCC(O)(CC2)CC3)CC1 [Example 806, 6-(3-cyanopyrrolo[1,2-b]pyridazin-7-yl)-4-((4-hydroxybicyclo[2.2.2]octan-1-yl)amino)-N-(3-(4-methylpiperazin-1-yl)-3-oxopropyl)nicotinamide]	6.46	8.52	–	–
